The test system of data set [1] is HeLa cells. Kind of data set: colony inhibition test against HeLa cells (treatment for 24 hrs). Conditions: Homo sapiens. The format is cell-based.
The subject of data set [2] is P388 leukemia. The data set is described as follows: antitumor activity against P388 ascitic leukemia in CDF-1 mice, treatment ip on day 1. The data set is classed as in vivo. The following applies: for T/C % (median survival time: % over untreated controls) / Toxic deaths: ip on day 1; for Toxic deaths: autoptic findings on dead mice; for antitumor activity compared with the parent drugs: P 388 ascitic leukemia, CDF-1 mice, in words. On the procedure: The primary screening "in vivo" was carried out in CDF-1 mice bearing P 388 ascitic leukemia (10^6 cells/mouse).
Antitumor activity against P388 leukemia, treatment ip on day 1
^a Median survival time: % over untreated controls
^b Evaluated on the basis of autoptic findings on dead mice.

Data set [3] has as its system advanced mammary carcinoma. Kind of data set: activity and toxicity against advanced mammary carcinoma in C3H/He mice, iv once a week for four weeks. The format is in vivo. Conditions: for Toxic deaths: autoptic evaluation; for Tumor growth: evaluated once week after last treatment; for activity at the optimal dose: 6 mg/kg of Doxorubicin, 5.3 mg/kg of IB, in words. How it is done: (§1) The compound IB has been tested in comparison with Doxorubicin against advanced mammary carcinoma spontaneously arising in C3H/He mice. The compounds were administered iv once a week for four weeks.
Activity, toxicity and cardiotoxicity of IB against advanced mammary
(§2) ^1 Experiment was performed in C3H/He mice inoculated s.c. with 20
(§3) × 10^6 mammary carcinoma cells.
(§4) ^2 Treatment iv started when tumor was palpable (once week for four
^3 Evaluated once week after last treatment.
^5 Evaluated on the basis of autoptic

Data set [4] deals with miocardial tissue (atrium, ventricle). Kind of data set: cardiotoxicity in C3H/He mice bearing mammary carcinoma, semithin sections of miocardial tissue (light microscopy). The data set is classed as in vivo. The following applies: for animals with cardiac lesions (atrial and ventricular level) / severity of the cardiac lesions: mouse, in vivo. How it is done: as §1, §2, §3, §4
^6 Evaluated on semithin section of miocardial tissue (by light

Where [5] appears, read: 6 mg/kg iv once a week for four weeks.
Where [6] appears, read: 7.5 mg/kg iv once a week for four weeks.
The mark [7] stands for this setting: 2.7 mg/kg iv once a week for four weeks.
[8] abbreviates: 3.8 mg/kg iv once a week for four weeks.
The mark [9] stands for this setting: 5.3 mg/kg iv once a week for four weeks.

The structures appear in SMILES notation. Converted amounts (≈) assume the structure as drawn. Read-outs that look alike come from different tables or passages of the source.

Regarding `COc1cccc2c1C(=O)c1c(O)c3c(c(O)c1C2=O)C[C@@](O)(C(C)=O)C[C@@H]3O[C@H]1C[C@H](N)[C@H](O)[C@H](C)O1` [Daunorubicin], the IC50 in data set [1] (HeLa, 24 h, read-out: ID50) was 9 ng/mL (≈ 0.0171 µM). Further, the “T/C % (median survival time: % over untreated controls)” value in data set [2] (dose 2.9 (ng/kg [sic])), in data set [2] (dose 4.4 (ng/kg [sic])) and in data set [2] (dose 6.6 (ng/kg [sic])) was 170% in each case. The values for the Toxic deaths in data set [2] (dose 2.9 (ng/kg [sic])), in data set [2] (dose 4.4 (ng/kg [sic])) and in data set [2] (dose 6.6 (ng/kg [sic])) were 0/10, 0/10 and 3/10, respectively.
Take `COc1cccc2c1C(=O)c1c(O)c3c(c(O)c1C2=O)CC(O)(C(C)=O)CC3OC1CC(O)C(N)C(C)O1` (centres unmarked) [IA, 3'-deamino-3'-hydroxy-4'-deoxy-4'-aminodaunorubicin]: the IC50 in data set [1] (HeLa cells, treatment for 24 hrs, read-out: ID50 (the source's name)) was found to be 7 ng/mL (≈ 0.0133 µM). Also, the “antitumor activity compared with the parent drugs” value in data set [2] is listed as “more active than the parent drugs”. In addition, the “T/C % (median survival time: % over untreated controls)” value in data set [2] (dose 10.0 (ng/kg [sic])) worked out at 165%; in data set [2] (dose 15.0 (ng/kg [sic])), 180%; in data set [2] (dose 22.5 (ng/kg [sic])), 200%. The Toxic deaths in data set [2] (dose 10.0 (ng/kg [sic])), in data set [2] (dose 15.0 (ng/kg [sic])) and in data set [2] (dose 22.5 (ng/kg [sic])) was 0/10 each time.
`COc1cccc2c1C(=O)c1c(O)c3c(c(O)c1C2=O)C[C@@](O)(C(=O)CO)C[C@@H]3O[C@H]1C[C@H](N)[C@H](O)[C@H](C)O1` [Doxorubicin]: in data set [2] (dose 10.0 (ng/kg [sic])), the “T/C % (median survival time: % over untreated controls)” value amounted to 225% and the Toxic deaths was 0/10. For the same compound, in data set [3] (setting [5]), the T/C % stood at 138%, the “Toxic deaths” value was 0/5 and the Tumor growth is reported as 65. In addition, the “activity at the optimal dose” value in data set [3] is given as “the same for both compounds”. In data set [3] (setting [6]), the T/C % was 125%, the “Toxic deaths” value was 5/5 and the Tumor growth turned out to be 84. In addition, in data set [4] (setting [5]), the “Cardiotoxicity, Atrium, affected mice (%)” value (“Cardiotoxicity, Atrium … (%)” below) is given as 100%; the “Cardiotoxicity, Atrium, grade” value amounted to 1.6; the “Cardiotoxicity, Ventricle, affected mice (%)” value is listed as 100%; the “Cardiotoxicity, Ventricle, grade” value is 1.2. In addition, in data set [4] (setting [6]), the “Cardiotoxicity, Atrium … (%)” value was found to be 100%; the “Cardiotoxicity, Atrium, grade” value was found to be 3.2; the “Cardiotoxicity, Ventricle, affected mice (%)” value stood at 100%; the “Cardiotoxicity, Ventricle, grade” value is recorded as 3.6. In addition, in data set [4], the “animals with cardiac lesions (atrial and ventricular level)” value is “all the animals”; the “severity of the cardiac lesions” value is listed as “high”.
With `COc1cccc2c1C(=O)c1c(O)c3c(c(O)c1C2=O)CC(O)(C(=O)CO)CC3OC1CC(O)C(N)C(C)O1` (centres unmarked) [IB, 3'-deamino-3'-hydroxy-4'-deoxy-4'-aminodoxorubicin], the “antitumor activity compared with the parent drugs” value in data set [2] is “more active than the parent drugs”. Further, the “T/C % (median survival time: % over untreated controls)” value in data set [2] (dose 4.4 (ng/kg [sic])) is 220%; in data set [2] (dose 6.6 (ng/kg [sic])), 230%; in data set [2] (dose 10.0 (ng/kg [sic])), 310%; in data set [2] (dose 15.0 (ng/kg [sic])) it was 215%. In addition, the Toxic deaths in data set [2] (dose 4.4 (ng/kg [sic])) is 0/10; in data set [2] (dose 6.6 (ng/kg [sic])), 0/10; in data set [2] (dose 10.0 (ng/kg [sic])), 0/10; in data set [2] (dose 15.0 (ng/kg [sic])) it was 3/10; in data set [3] (setting [7]), 0/5; in data set [3] (setting [8]), 0/5. The “Toxic deaths” value in data set [3] (setting [9]) is recorded as 1/5. The T/C % is listed as 98% in data set [3] (setting [7]), 129% in data set [3] (setting [8]) and 148% in data set [3] (setting [9]). The Tumor growth worked out at 32 in data set [3] (setting [7]), 34 in data set [3] (setting [8]) and 59 in data set [3] (setting [9]). The “activity at the optimal dose” value in data set [3] is “the same for both compounds”. Moreover, the “Cardiotoxicity, Atrium … (%)” value in data set [4] (setting [7]) was found to be 25%; in data set [4] (setting [8]), 20%; in data set [4] (setting [9]), 40%. Also, the results for the “Cardiotoxicity, Atrium, grade” value in data set [4] (setting [7]), in data set [4] (setting [8]) and in data set [4] (setting [9]) were 0.1, 0.1 and 0.2, respectively. The results for the “Cardiotoxicity, Ventricle, affected mice (%)” value in data set [4] (setting [7]), in data set [4] (setting [8]) and in data set [4] (setting [9]) were 0%, 60% and 80%, respectively. For the same compound, the “Cardiotoxicity, Ventricle, grade” value is reported as 0 in data set [4] (setting [7]), 0.3 in data set [4] (setting [8]) and 0.4 in data set [4] (setting [9]). Moreover, in data set [4] (in words), the “cardiotoxicity in comparison with Doxorubicin” value was “drastically reduced in comparison with Doxorubicin”. The “animals with cardiac lesions (atrial and ventricular level)” value in data set [4] is given as “lower percent of affected mice”. The “severity of the cardiac lesions” value in data set [4] is given as “lower severity”.

For the origin of these results see patent US4684629A, “3'-deamino-3'-hydroxy-4'-deoxy-4'-amino doxorubicin and related daunorubicin” (priority 1985, dated 1987).
